US20220380383A1, “NEUROPROTECTIVE PDI MODULATING SMALL MOLECULES AND METHODS OF USE THEREOF” (THE TRUSTEES OF COLUMBIA UNIVERSITY IN THE CITY OF NEW YORK, priority 2018, published 2022)
≈ marks a conversion by molar mass, not a printed value.

Assays:
[1] = tested on: neuronal redox state (roGFP2); test: roGFP2 redox reporter in primary neurons; assay type: cell-based; conditions: 30 min treatment
Experimental: […]. Rat coronal brain slice explants co-transfected with YFP and Tau-4R (FIG. 16B) or striatal brain slice explants co-transfected with YFP and mHTT (FIG. 16C) were treated with LC-43 or DMSO carrier-only for 3 days. The respective regions of each brain slice were then scored for numbers of healthy (FIG. 16B) pyramidal or (FIG. 16C) medium spiny neurons remaining. Data are normalized to the negative control condition set to 100% and plotted as means±SEM. In FIG. 16D, The confocal images shown are maximal z-stacks of 0.5 μm steps (˜20 images per stack). (Bottom) Reduction of neuronal redox state by LC-43. Left, Primary neurons were co-transfected with mCherry (to positively identify transfected neurons) and the genetically encoded ratiometric redox reporter roGFP2. Four days later, the culture medium was changed into an identical formulation except without conventional antioxidant additives. 24 hours after this medium change, LOC-43 or DMSO carrier-only were added to the neurons and images were taken after 30 minutes or 24 hours of treatment as indicated. Imaging was done using a Leica SP5 inverted confocal microscope through a 63× water-immersion objective. Images of 40 individual neurons for each condition were collected at 405 and 488 nm and analysis of the 405/488 ratio for each image pair was done using CellProfiler (Broad Institute).
As mentioned, we synthesized several fluorine-containing analogs of LOC14 (analogs LC-43 and LC-40). Addition of fluorine was the only modification that was tolerated at the ortho position without a complete loss of activity in cells and in targeting PDI in vitro (Table 9). […] Additionally, we evaluated LC-43 using a genetically encoded redox reporter transfected into neurons. […] In contrast, treatment with the non-selective reducing agent dithiothreitol (DTT) produces an immediate and dramatic reduction in the roGFP2 fluorescence ratio that leads rapidly to cell degeneration and death (FIG. 16D). […]

[2] = biological target: T1, human catalytic PDI A1 a domain (PDIa) (Homo sapiens, UniProt P07237); test: Isothermal titration calorimetry (ITC) binding to PDIa; conditions: Tables 5-13; NA = not active; read-out: Kd
T1 construct: made in house; host or cells: Escherichia coli BL21-Gold (DE3)
T1 sequence (P07237 18-134): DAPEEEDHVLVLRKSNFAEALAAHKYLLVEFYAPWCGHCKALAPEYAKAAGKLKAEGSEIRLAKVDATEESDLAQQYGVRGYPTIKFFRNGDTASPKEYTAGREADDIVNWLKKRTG

PC12 mHTTQ103 cells [3] = test: Rescue of PC12 cells from mHTTQ103-induced cell death; assay type: cell-based, rat; conditions: Tables 5-13, PC12 cells
[4] = biological target: T2, PDIa C56S mutant (PDI C39S) (Homo sapiens, UniProt P07237, C56S); test: MALDI-TOF mass spectrometry with PDIa C56S mutant; assay type: binding
T2 construct: made in house; host or cells: E. coli
T2 sequence (P07237 18-134 C56S): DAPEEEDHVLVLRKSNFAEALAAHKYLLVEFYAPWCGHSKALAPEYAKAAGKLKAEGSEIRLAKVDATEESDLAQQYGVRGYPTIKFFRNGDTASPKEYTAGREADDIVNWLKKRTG
Text: We also explored the feasibility of generating a crystal structure of PDI bound to one of these inhibitors for structure-based analog design. LOC14 is a reversible inhibitor of PDI and therefore may not remain bound to the protein in crystallization trays. To trap the LOC14-PDI complex, we generated a PDI C39S mutant that should not release the compound from PDI. To confirm this mechanism of binding, we performed MALDI-TOF mass-spectrometry experiments with PDI C39S in the presence and absence of LOC14 (FIG. 4). […] PDI C39S treated with LOC14 gave 4 peaks: main mass peak at 15,557 Da (change of +152 which corresponds to the bound benzoisothiazolone moiety to PDI C39S), a peak at 15,735 Da (corresponding to the benzoisothiazolone moiety bound to C39S-gluconoylated protein), a peak at 15,404 (the mass of unbound C39S protein), and a peak at 15,584 Da (the mass of unbound C39S-gluconoylated protein). […] The incomplete binding is most likely due to the presence of reducing agent in the buffer. […]
To confirm that binding of LOC14 to PDI is reversible, we pre-treated a C56S mutant, as before, with LOC14, BIT, or iodoacetamide, an irreversible modifier of cysteines. Once the PDI-inhibitor complexes were formed, we treated the samples with 2.7 mM DTT, a reducing agent, and analyzed the complex by MALDI-TOF.

[5] = Solubility (stock solvent); conditions: Tables 5-13; solvent not given (DMSO in Table 1)
[6] = tested on: ROS in PC12 mHTTQ103 cells; test: CellROX Orange flow cytometry ROS assay; assay type: cell-based, rat; conditions: 3 μM, 24 hours, mHTT-induced cells
Experimental: (§1) In FIG. 14B, cells were stained with 5 μM CeIIROX Orange dye to assay cellular ROS production. Representative data from one of three flow cytometry replicates are shown. In FIG. 14C, an aliquot from each sample was used for assessing viability, using Trypan blue dye on ViCell. […] Data are plotted as mean±SD with n=3.
(§2) One goal was to further understand why modulating PDI activity can be neuroprotective in AD and HD models. Previously, we saw that LOC14 alters PDI's redox state from the reduced to the oxidized conformation (Kaplan et al. 2015). In vivo, there are oxidoreductase enzymes, such as ERO1, that regulate PDI's redox states and, as a byproduct of the redox reaction, pass electrons to oxygen as a final electron acceptor, generating H2O2. We hypothesized that LOC14 might function in place of oxidoreductases such as ERO1, oxidizing PDI without generating H2O2 and that this decrease in ROS production is what is causing the neuroprotection in cells and neurons. […] Cells were then stained with the fluorescent ROS-sensitive dye, CeIIROX Orange, and ROS assayed by flow cytometry. Induced mHTT-expressing cells had elevated levels of ROS compared to cells not expressing mHTT (uninduced cells) and these ROS were decreased in cells treated with LOC14 (FIG. 14B). […]

PC12 mHTTQ103 cells [7] = test: Trypan blue viability assay; assay type: cell-based, rat; conditions: 3 μM, 24 hours
Experimental: as §1, §2

## O[C@H](CS)[C@H](O)CS (racemic) [DTT, dithiothreitol, reference compound]
[1]
  neuronal redox state (roGFP2): immediate and drastic reduction

## O=c1[nH]sc2ccccc12 [BIT, benzoisothiazolone, reference compound]
[2]
  Kd: 143 nM
PC12 mHTTQ103 cells [3]; Rattus norvegicus, PC-12, read-out: EC50
  EC50: 362 nM
PC12 mHTTQ103 cells [3]
  Max Viability (%): 66%
[4]
  reversibility of binding to PDIa C56S after 2.7 mM DTT: bind reversibly to C53
[5]
  Solubility: 100 mM (≈ 15.1 mg/mL)

## O=C(C1CC1)N1CCN(Cn2oc3ccccc3c2=O)CC1 [OxyLOC14]
[6]
  cellular ROS (CellROX Orange flow cytometry): did not decrease ROS
PC12 mHTTQ103 cells [7]
  protection from mHTT in trypan blue viability assay: did not show any protection from mHTT

## NC(=O)CI [iodoacetamide]
[4]
  reversibility of binding to PDIa C56S after 2.7 mM DTT: irreversible
